Data reported in patent publication US12653800B2, “Small molecule inhibitors of TLR2 signaling” (University of Maryland, Baltimore, priority 2015, dated 2026).

Key:
TLR2/1 = TLR2/1 (Mus musculus, UniProt Q9QUN7); test: P3C-induced inflammation in vivo in C57BL/6J mice; set-up: tissue The Jackson Laboratory; host or cells: whole animal; liver RNA and serum analysed; details: C29L i.p. 1.314 mM/g twice, P3C 100 μg i.p.
Protocol: FIG. 4. C29L inhibits TLR2/1-induced inflammation in vivo. C57BL/6J mice were pretreated i.p. with vehicle (water) or C29L (1.314 mM/g) for 1 hr. Mice received a second pretreatment i.p. with vehicle (water) or C29L (1.314 mM/g) and subsequently were challenged i.p. with PBS or P3C (100 μg) and sacrificed 1 hr or 3 hrs later. Liver RNA (A) was analyzed by qRT-PCR and serum concentrations (B) were analyzed by Multiplex (*, p≤0.05; ***, p≤0.001; ****, p≤0.0001). Panels A and B, n=6 (the combined data from two separate experiments) for each treatment group.
All animal studies were carried out with institutional approval. Female C57BL/6J mice (6-8 weeks old) were purchased from The Jackson Laboratory (Bar Harbor, ME) and (n=3 mice/group) received PBS, H2O, or C29L (in H2O) i.p. (1.314 mM/g). After 1 h, mice received a second injection of PBS, H2O, or C29L i.p. (1.314 mM/g) and were subsequently challenged i.p. with PBS or P3C (100 μg) for 1 or 3 h. Mice were bled and sera was prepared. Livers were also extracted for qRT-PCR analysis.

[1] = Thin layer chromatography of C29 in NaOH or organic solvent (imine cleavage); assay type: physicochemical
Protocol: FIG. 11. C29 L reproduces the TLR2 inhibitory activity observed with C29. (A) C29 dissolved in NaOH generates ortho-vanillin (“C29L”) and 3-amino-2-methylbenzoic acid (“C29R”). (B) TLC plate coated with silica was spotted with C29 dissolved in 65 μM NaOH, C29 dissolved in ethyl acetate (organic solvent), and a mixture of both. The plate was placed in solvent and visualized using a KMnO4 stain. (C, D) Total RNA was extracted from murine peritoneal macrophages that had been pretreated for 1 hr with vehicle (65 μM NaOH), C29 (25 μM or 50 μM), C29L (25 μM or 50 μM), or C29R (25 μM or 50 μM) and then stimulated with P3C (50 ng/mL), P2C (100 ng/mL), or LPS (100 ng/mL) for 1 hr in the presence of vehicle, C29, C29L, or C29R. TNF-α mRNA was measured as described in FIG. 1, panel D. Quantitative real-time results are representative of 2 independent experiments each carried out in duplicate (*, p≤0.05; **, p≤0.01; ***, p≤0.001; ****, p≤0.0001).
To preclude cytotoxicity from DMSO, C29 was dissolved in 65 μM NaOH in H2O. […] The two cleavage products, C29L and C29R, were tested to determine if either would reproduce the TLR2 inhibitory activity of C29.

Chain of TLR2/1 (Q9QUN7 25-784): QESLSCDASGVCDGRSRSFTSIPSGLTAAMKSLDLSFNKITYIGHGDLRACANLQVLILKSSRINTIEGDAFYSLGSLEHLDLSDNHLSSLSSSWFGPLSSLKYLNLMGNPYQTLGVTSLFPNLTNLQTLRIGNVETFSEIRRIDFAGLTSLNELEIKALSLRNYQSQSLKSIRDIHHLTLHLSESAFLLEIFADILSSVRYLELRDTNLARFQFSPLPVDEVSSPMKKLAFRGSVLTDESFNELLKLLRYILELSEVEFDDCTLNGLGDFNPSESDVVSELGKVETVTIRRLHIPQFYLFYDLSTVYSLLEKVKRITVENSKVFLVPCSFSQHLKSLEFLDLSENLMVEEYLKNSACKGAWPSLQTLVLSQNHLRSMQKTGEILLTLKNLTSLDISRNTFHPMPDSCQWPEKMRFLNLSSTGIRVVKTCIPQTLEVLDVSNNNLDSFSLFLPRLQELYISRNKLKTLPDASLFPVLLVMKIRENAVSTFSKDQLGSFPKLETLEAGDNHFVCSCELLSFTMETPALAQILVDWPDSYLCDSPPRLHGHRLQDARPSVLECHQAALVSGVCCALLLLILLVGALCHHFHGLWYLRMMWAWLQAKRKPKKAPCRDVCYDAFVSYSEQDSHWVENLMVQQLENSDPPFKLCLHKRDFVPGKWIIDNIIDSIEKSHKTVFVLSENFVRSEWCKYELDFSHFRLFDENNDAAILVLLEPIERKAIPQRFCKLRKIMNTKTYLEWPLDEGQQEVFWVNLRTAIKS

| P3C-induced IL-12 p40 liver cytokine mRNA (TLR2/1; 1 or 3 hrs) | P3C-induced IL-12 p40 serum protein (TLR2/1; 1 or 3 hrs) | P3C-induced TNF-α liver cytokine mRNA (TLR2/1; 1 or 3 hrs) | P3C-induced TNF-α serum protein (TLR2/1; 1 or 3 hrs) | P3C-induced IL-12 p40 at the later time point (TLR2/1; 3 hrs) | Structure (SMILES) | stability of imine linkage (TLC) ([1]; dissolved in 65 μM NaOH in H2O) | stability of imine linkage (TLC) ([1]; dissolved in an organic solvent (ethyl acetate)) |
| --- | --- | --- | --- | --- | --- | --- | --- |
| significantly blocked | significantly blocked | significantly blocked | significantly blocked | significant inhibitory effect | COc1cccc(C=O)c1O [Compound C29L, ortho-vanillin] | – | – |
| – | – | – | – | – | COc1cccc(/C=N/c2cccc(C(=O)O)c2C)c1O [Compound C29] | cleaved into these two species | not when dissolved in an organic solvent |
